Assay results from the NIST ThermoML archive (doi:10.1021/je300873x).

Test: mn = molality of the nth substance listed, in mol/kg
Details: for surface tension liquid-gas: Pendant drop shape; for electrical conductivity: Liquid, Digital conductivity meter

CCCCCCCCCCCC[N+](C)(C)CCO.[Br-] [dodecyl(2-hydroxyethyl)dimethylammonium bromide] + O
Details | electrical conductivity [S/m] | surface tension liquid-gas [mN/m]
298.15 K, m1 = 0.001 | – | 68.12
298.15 K, m1 = 0.00201 | – | 63.05
298.15 K, m1 = 0.00402 | – | 54.51
298.15 K, m1 = 0.00602 | – | 49.15
298.15 K, m1 = 0.00803 | – | 45.74
298.15 K, m1 = 0.00949 | 0.0809 | –
298.15 K, m1 = 0.00996 | 0.0847 | –
298.15 K, m1 = 0.01004 | – | 42.61
298.15 K, m1 = 0.01049 | 0.0889 | –
298.15 K, m1 = 0.01107 | 0.0935 | –
298.15 K, m1 = 0.01172 | 0.0987 | –
298.15 K, m1 = 0.01205 | – | 39.74
298.15 K, m1 = 0.01246 | 0.1047 | –
298.15 K, m1 = 0.01286 | 0.1079 | –
298.15 K, m1 = 0.01305 | – | 38.84
298.15 K, m1 = 0.01329 | 0.111 | –
298.15 K, m1 = 0.01375 | 0.1138 | –
298.15 K, m1 = 0.01424 | 0.116 | –
298.15 K, m1 = 0.01476 | 0.1177 | –
298.15 K, m1 = 0.01506 | – | 38.78
298.15 K, m1 = 0.01533 | 0.1196 | –
298.15 K, m1 = 0.01595 | 0.121 | –
298.15 K, m1 = 0.01661 | 0.1226 | –
298.15 K, m1 = 0.01707 | – | 38.7
298.15 K, m1 = 0.01733 | 0.1248 | –
298.15 K, m1 = 0.01812 | 0.1264 | –
298.15 K, m1 = 0.01899 | 0.1281 | –
298.15 K, m1 = 0.01994 | 0.1302 | –
298.15 K, m1 = 0.02009 | – | 38.51
298.15 K, m1 = 0.03014 | – | 38.4
298.15 K, m1 = 0.05027 | – | 38.38
303.15 K, m1 = 0.00945 | 0.0886 | –
303.15 K, m1 = 0.00992 | 0.093 | –
303.15 K, m1 = 0.01045 | 0.0974 | –
303.15 K, m1 = 0.01103 | 0.1025 | –
303.15 K, m1 = 0.01168 | 0.1068 | –
303.15 K, m1 = 0.01241 | 0.1148 | –
303.15 K, m1 = 0.01281 | 0.1182 | –
303.15 K, m1 = 0.01324 | 0.1212 | –
303.15 K, m1 = 0.01369 | 0.1246 | –
303.15 K, m1 = 0.01418 | 0.128 | –
303.15 K, m1 = 0.01471 | 0.1306 | –
303.15 K, m1 = 0.01527 | 0.1326 | –
303.15 K, m1 = 0.01589 | 0.1346 | –
303.15 K, m1 = 0.01655 | 0.1364 | –
303.15 K, m1 = 0.01727 | 0.1386 | –
303.15 K, m1 = 0.01805 | 0.1407 | –
303.15 K, m1 = 0.01892 | 0.1431 | –
303.15 K, m1 = 0.01986 | 0.1451 | –
308.15 K, m1 = 0.00993 | 0.1022 | –
308.15 K, m1 = 0.01046 | 0.1072 | –
308.15 K, m1 = 0.01104 | 0.112 | –
308.15 K, m1 = 0.01169 | 0.1179 | –
308.15 K, m1 = 0.01242 | 0.1251 | –
308.15 K, m1 = 0.01282 | 0.1293 | –
308.15 K, m1 = 0.01325 | 0.1334 | –
308.15 K, m1 = 0.0137 | 0.1371 | –
308.15 K, m1 = 0.01419 | 0.1408 | –
308.15 K, m1 = 0.01472 | 0.1443 | –
308.15 K, m1 = 0.01529 | 0.1472 | –
308.15 K, m1 = 0.0159 | 0.1496 | –
308.15 K, m1 = 0.01656 | 0.152 | –
308.15 K, m1 = 0.01728 | 0.1541 | –
308.15 K, m1 = 0.01807 | 0.1567 | –
308.15 K, m1 = 0.01893 | 0.1595 | –
308.15 K, m1 = 0.01987 | 0.1621 | –
313.15 K, m1 = 0.01044 | 0.1171 | –
313.15 K, m1 = 0.01102 | 0.1229 | –
313.15 K, m1 = 0.01167 | 0.1298 | –
313.15 K, m1 = 0.0124 | 0.1376 | –
313.15 K, m1 = 0.0128 | 0.1416 | –
313.15 K, m1 = 0.01322 | 0.1461 | –
313.15 K, m1 = 0.01368 | 0.1507 | –
313.15 K, m1 = 0.01417 | 0.1556 | –
313.15 K, m1 = 0.01469 | 0.1595 | –
313.15 K, m1 = 0.01526 | 0.1638 | –
313.15 K, m1 = 0.01587 | 0.1664 | –
313.15 K, m1 = 0.01653 | 0.1694 | –
313.15 K, m1 = 0.01725 | 0.1723 | –
313.15 K, m1 = 0.01803 | 0.1749 | –
313.15 K, m1 = 0.01889 | 0.1783 | –
313.15 K, m1 = 0.01984 | 0.1813 | –
318.15 K, m1 = 0.01042 | 0.127 | –
318.15 K, m1 = 0.01099 | 0.134 | –
318.15 K, m1 = 0.01164 | 0.1411 | –
318.15 K, m1 = 0.01237 | 0.1496 | –
318.15 K, m1 = 0.01277 | 0.1543 | –
318.15 K, m1 = 0.01319 | 0.1592 | –
318.15 K, m1 = 0.01365 | 0.1643 | –
318.15 K, m1 = 0.01414 | 0.1694 | –
318.15 K, m1 = 0.01466 | 0.174 | –
318.15 K, m1 = 0.01523 | 0.1791 | –
318.15 K, m1 = 0.01583 | 0.1838 | –
318.15 K, m1 = 0.01649 | 0.1877 | –
318.15 K, m1 = 0.01721 | 0.1908 | –
318.15 K, m1 = 0.018 | 0.1933 | –
318.15 K, m1 = 0.01885 | 0.1973 | –
318.15 K, m1 = 0.0198 | 0.2012 | –
323.15 K, m1 = 0.01039 | 0.1354 | –
323.15 K, m1 = 0.01097 | 0.1447 | –
323.15 K, m1 = 0.01162 | 0.1524 | –
323.15 K, m1 = 0.01234 | 0.1613 | –
323.15 K, m1 = 0.01274 | 0.1661 | –
323.15 K, m1 = 0.01317 | 0.1716 | –
323.15 K, m1 = 0.01362 | 0.1773 | –
323.15 K, m1 = 0.01411 | 0.1832 | –
323.15 K, m1 = 0.01463 | 0.1896 | –
323.15 K, m1 = 0.01519 | 0.1954 | –
323.15 K, m1 = 0.0158 | 0.2012 | –
323.15 K, m1 = 0.01646 | 0.2061 | –
323.15 K, m1 = 0.01717 | 0.21 | –
323.15 K, m1 = 0.01795 | 0.2148 | –
323.15 K, m1 = 0.01881 | 0.2187 | –
323.15 K, m1 = 0.01975 | 0.2216 | –
